Reference: the kinase profiling compilation of Christmann-Franck et al. (2016)

Tests used:
Assay in all cases: KINOMEscan competition binding
Conditions in all cases: compound 10.0 µM
MAP4K1 (human) = MAP4K1 (human) (UniProt Q92918)
MAP2K6 (human) = MAP2K6 (human) (UniProt P52564)
TGFBR1 (human) = TGFBR1 (human) (UniProt P36897)
RPS6KA4 KD1 (human) = RPS6KA4 KD1 (human) (UniProt O75676)
RPS6KA1 KD2 (human) = RPS6KA1 KD2 (human) (UniProt Q15418)
NTRK2 (human) = NTRK2 (human) (UniProt Q16620)
CDK14 (human) = CDK14 (human) (UniProt O94921)
DAPK2 (human) = DAPK2 (human) (UniProt Q9UIK4)
IGF1R (human) = IGF1R (human) (UniProt P08069)
AKT3 (human) = AKT3 (human) (UniProt Q9Y243)
ICK (human) = ICK (human) (UniProt Q9UPZ9)
EIF2AK1 (human) = EIF2AK1 (human) (UniProt Q9BQI3)
CDKL1 (human) = CDKL1 (human) (UniProt Q00532)
ANKK1 (human) = ANKK1 (human) (UniProt Q8NFD2)
LRRK2 (human) = LRRK2 (human) (UniProt Q5S007)
RIPK4 (human) = RIPK4 (human) (UniProt P57078)
CLK3 (human) = CLK3 (human) (UniProt P49761)
CAMK2A (human) = CAMK2A (human) (UniProt Q9UQM7)
TGFBR2 (human) = TGFBR2 (human) (UniProt P37173)
MAPK12 (human) = MAPK12 (human) (UniProt P53778)
STK17B (human) = STK17B (human) (UniProt O94768)
RPS6KB1 (human) = RPS6KB1 (human) (UniProt P23443)
MAPK15 (human) = MAPK15 (human) (UniProt Q8TD08)
DAPK1 (human) = DAPK1 (human) (UniProt P53355)
CDK7 (human) = CDK7 (human) (UniProt P50613)
LATS2 (human) = LATS2 (human) (UniProt Q9NRM7)
CDK13 (human) = CDK13 (human) (UniProt Q14004)
PRKG1 (human) = PRKG1 (human) (UniProt Q13976)
STK35 (human) = STK35 (human) (UniProt Q8TDR2)
PDPK1 (human) = PDPK1 (human) (UniProt O15530)
PRKD2 (human) = PRKD2 (human) (UniProt Q9BZL6)
[1] = molecular target: TYK2 JH2 pseudokinase (human) (UniProt P29597)
NUAK2 (human) = NUAK2 (human) (UniProt Q9H093)
IRAK1 (human) = IRAK1 (human) (UniProt P51617)
EPHA6 (human) = EPHA6 (human) (UniProt Q9UF33)
PIK3C2G (human) = PIK3C2G (human) (UniProt O75747)
MAP3K5 (human) = MAP3K5 (human) (UniProt Q99683)
HIPK2 (human) = HIPK2 (human) (UniProt Q9H2X6)
CDK2 (human) = CDK2 (human) (UniProt P24941)
TNK2 (human) = TNK2 (human) (UniProt Q07912)

Chain of ANKK1 (human) (Q8NFD2 whole entry, looked up): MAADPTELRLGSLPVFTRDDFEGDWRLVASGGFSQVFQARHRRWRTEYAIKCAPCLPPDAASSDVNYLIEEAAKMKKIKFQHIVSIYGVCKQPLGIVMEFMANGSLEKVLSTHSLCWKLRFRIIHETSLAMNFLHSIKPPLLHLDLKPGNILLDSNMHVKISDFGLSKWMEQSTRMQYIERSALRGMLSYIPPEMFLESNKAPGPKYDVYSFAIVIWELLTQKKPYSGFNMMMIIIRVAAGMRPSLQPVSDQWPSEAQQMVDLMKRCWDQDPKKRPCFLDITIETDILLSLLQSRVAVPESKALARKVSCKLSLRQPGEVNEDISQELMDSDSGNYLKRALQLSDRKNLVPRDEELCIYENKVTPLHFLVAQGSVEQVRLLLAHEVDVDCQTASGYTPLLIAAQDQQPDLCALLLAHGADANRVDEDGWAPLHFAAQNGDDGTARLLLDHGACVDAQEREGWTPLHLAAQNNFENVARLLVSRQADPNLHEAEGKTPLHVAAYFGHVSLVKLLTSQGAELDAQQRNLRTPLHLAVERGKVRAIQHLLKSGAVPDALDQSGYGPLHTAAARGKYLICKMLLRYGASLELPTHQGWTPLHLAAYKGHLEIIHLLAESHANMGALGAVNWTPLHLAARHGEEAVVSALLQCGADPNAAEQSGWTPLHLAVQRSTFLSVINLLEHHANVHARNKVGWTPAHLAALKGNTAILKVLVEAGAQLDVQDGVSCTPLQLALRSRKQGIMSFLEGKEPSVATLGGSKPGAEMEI
Chain of CLK3 (human) (P49761 whole entry, looked up): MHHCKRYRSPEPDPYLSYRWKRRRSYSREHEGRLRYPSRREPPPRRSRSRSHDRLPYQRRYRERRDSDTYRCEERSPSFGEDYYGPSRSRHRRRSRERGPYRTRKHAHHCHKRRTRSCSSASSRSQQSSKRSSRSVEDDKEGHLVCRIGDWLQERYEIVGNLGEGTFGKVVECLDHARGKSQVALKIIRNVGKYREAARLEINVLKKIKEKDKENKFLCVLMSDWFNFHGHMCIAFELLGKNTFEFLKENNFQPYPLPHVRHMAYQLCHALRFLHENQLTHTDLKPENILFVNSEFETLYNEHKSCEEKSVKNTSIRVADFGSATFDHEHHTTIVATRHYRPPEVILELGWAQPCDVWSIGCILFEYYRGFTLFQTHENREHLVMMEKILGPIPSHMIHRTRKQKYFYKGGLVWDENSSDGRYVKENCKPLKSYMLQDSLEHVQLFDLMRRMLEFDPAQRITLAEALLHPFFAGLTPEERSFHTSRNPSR
Chain of TYK2 JH2 pseudokinase (human) (P29597 whole entry, looked up): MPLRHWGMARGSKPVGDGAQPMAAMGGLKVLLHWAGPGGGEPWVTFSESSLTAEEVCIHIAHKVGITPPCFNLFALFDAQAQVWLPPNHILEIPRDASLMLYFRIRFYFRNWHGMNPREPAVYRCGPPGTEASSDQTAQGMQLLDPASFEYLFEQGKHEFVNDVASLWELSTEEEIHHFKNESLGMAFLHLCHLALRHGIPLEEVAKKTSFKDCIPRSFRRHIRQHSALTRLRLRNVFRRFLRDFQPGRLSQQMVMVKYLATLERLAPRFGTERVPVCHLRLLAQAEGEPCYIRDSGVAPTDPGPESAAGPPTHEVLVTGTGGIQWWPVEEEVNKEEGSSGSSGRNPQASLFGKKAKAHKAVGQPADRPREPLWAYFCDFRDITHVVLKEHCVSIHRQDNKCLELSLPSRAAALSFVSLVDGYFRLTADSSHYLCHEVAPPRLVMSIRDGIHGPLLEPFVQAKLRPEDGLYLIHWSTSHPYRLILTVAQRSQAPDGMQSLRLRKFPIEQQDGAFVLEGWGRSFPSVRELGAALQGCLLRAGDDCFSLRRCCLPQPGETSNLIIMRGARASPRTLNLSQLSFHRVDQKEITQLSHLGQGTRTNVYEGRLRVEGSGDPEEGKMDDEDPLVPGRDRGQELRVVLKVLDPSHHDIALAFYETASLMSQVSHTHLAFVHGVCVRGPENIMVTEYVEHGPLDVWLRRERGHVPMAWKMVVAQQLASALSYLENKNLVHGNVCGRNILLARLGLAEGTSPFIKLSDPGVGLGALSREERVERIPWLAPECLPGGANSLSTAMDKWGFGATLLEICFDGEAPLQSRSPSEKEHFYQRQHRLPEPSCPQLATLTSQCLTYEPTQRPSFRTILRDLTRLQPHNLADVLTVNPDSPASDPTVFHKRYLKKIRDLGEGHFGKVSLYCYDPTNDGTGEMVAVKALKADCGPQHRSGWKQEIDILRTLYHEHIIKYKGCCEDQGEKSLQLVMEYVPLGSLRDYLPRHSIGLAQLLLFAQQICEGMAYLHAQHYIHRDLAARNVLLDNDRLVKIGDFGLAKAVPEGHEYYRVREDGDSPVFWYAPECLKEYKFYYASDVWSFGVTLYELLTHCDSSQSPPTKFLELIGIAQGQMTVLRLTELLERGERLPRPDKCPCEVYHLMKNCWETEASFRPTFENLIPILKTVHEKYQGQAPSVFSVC
Chain of PDPK1 (human) (O15530 whole entry, looked up): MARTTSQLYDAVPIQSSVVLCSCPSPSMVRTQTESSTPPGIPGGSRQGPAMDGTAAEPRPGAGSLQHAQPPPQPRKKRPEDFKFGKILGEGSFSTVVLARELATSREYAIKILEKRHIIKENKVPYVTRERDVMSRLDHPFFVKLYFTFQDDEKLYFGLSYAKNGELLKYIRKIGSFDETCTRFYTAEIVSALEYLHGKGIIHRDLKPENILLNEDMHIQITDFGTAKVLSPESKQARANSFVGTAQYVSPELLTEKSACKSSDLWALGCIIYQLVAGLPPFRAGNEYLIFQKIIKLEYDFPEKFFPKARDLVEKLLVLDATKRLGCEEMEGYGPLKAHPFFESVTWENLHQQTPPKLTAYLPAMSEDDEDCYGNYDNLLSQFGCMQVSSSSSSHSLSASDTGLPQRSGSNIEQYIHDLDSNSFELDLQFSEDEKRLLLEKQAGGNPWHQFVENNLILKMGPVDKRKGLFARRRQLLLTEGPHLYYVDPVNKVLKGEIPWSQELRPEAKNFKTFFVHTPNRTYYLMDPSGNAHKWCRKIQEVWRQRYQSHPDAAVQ
Chain of TGFBR1 (human) (P36897 whole entry, looked up): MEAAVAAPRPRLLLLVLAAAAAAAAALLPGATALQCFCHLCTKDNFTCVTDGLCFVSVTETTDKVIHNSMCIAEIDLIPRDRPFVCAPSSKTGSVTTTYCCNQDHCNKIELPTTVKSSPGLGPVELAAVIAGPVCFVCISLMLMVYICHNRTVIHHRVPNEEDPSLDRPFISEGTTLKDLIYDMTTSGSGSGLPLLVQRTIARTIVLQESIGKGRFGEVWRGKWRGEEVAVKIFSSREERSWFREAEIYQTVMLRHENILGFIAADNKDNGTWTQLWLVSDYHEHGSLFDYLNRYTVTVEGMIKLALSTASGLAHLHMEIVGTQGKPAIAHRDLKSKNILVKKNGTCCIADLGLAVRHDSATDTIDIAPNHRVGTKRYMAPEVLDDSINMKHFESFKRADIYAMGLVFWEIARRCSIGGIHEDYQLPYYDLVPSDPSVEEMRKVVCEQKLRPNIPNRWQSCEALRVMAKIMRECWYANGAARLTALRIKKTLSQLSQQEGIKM
Chain of CDK14 (human) (O94921 whole entry, looked up): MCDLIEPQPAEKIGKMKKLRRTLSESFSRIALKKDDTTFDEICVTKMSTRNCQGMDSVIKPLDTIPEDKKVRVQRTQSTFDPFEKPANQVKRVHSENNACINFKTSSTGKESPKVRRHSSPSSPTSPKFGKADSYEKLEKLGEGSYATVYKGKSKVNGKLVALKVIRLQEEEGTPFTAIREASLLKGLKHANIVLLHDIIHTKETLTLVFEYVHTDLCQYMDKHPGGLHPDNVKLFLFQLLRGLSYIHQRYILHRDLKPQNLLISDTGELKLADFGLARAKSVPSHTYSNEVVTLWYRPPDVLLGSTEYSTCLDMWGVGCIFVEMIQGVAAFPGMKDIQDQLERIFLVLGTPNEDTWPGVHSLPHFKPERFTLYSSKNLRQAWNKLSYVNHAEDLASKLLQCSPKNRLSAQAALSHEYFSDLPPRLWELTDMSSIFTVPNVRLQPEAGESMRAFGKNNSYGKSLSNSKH
Chain of NUAK2 (human) (Q9H093 whole entry, looked up): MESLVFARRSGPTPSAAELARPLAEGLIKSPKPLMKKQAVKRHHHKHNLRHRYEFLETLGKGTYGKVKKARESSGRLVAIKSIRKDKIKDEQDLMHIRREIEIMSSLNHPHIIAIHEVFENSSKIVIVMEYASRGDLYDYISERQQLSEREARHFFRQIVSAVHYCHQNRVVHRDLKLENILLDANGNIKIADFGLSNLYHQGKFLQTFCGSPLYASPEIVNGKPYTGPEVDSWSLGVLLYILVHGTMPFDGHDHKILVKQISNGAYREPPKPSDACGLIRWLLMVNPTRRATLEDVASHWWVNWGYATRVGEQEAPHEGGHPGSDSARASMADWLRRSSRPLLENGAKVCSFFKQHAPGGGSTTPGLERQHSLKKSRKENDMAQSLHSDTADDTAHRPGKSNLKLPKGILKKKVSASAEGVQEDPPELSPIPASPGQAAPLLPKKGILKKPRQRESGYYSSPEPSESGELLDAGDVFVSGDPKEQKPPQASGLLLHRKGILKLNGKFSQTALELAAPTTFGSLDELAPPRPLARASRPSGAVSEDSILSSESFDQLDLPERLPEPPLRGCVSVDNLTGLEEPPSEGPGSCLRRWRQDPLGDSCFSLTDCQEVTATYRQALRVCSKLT
Chain of STK17B (human) (O94768 whole entry, looked up): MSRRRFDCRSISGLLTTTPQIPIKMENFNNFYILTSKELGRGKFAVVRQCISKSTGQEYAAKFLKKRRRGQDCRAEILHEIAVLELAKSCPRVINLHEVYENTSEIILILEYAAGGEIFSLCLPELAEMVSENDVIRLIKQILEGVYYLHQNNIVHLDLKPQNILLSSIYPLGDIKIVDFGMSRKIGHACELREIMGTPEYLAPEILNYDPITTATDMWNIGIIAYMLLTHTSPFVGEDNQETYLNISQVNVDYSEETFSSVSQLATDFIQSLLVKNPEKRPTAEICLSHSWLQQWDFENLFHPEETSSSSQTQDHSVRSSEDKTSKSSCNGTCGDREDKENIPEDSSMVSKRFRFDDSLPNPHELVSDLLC

O=C1Nc2ccc(I)cc2/C1=C/c1cc(Br)c(O)c(Br)c1
kinase still bound, per cent of control (MAP4K1 (human)): 71%
kinase still bound, per cent of control (MAP2K6 (human)): 71%
kinase still bound, per cent of control (TGFBR1 (human)): 10%
kinase still bound, per cent of control (RPS6KA4 KD1 (human)): 87%
kinase still bound, per cent of control (RPS6KA1 KD2 (human)): 12%
kinase still bound, per cent of control (NTRK2 (human)): 55%
kinase still bound, per cent of control (CDK14 (human)): 95%
kinase still bound, per cent of control (DAPK2 (human)): 1.9%
kinase still bound, per cent of control (IGF1R (human)): 97%
kinase still bound, per cent of control (AKT3 (human)): 100%
kinase still bound, per cent of control (ICK (human)): 88%
kinase still bound, per cent of control (EIF2AK1 (human)): 57%
kinase still bound, per cent of control (CDKL1 (human)): 84%
kinase still bound, per cent of control (ANKK1 (human)): 12%
kinase still bound, per cent of control (LRRK2 (human)): 11%
kinase still bound, per cent of control (RIPK4 (human)): 76%
kinase still bound, per cent of control (CLK3 (human)): 84%
kinase still bound, per cent of control (CAMK2A (human)): 20%
kinase still bound, per cent of control (TGFBR2 (human)): 56%
kinase still bound, per cent of control (MAPK12 (human)): 74%
kinase still bound, per cent of control (STK17B (human)): 40%
kinase still bound, per cent of control (RPS6KB1 (human)): 81%
kinase still bound, per cent of control (MAPK15 (human)): 61%
kinase still bound, per cent of control (DAPK1 (human)): 6.2%
kinase still bound, per cent of control (CDK7 (human)): 67%
kinase still bound, per cent of control (LATS2 (human)): 81%
kinase still bound, per cent of control (CDK13 (human)): 100%
kinase still bound, per cent of control (PRKG1 (human)): 100%
kinase still bound, per cent of control (STK35 (human)): 100%
kinase still bound, per cent of control (PDPK1 (human)): 100%
kinase still bound, per cent of control (PRKD2 (human)): 100%
kinase still bound, per cent of control [1]: 100%
kinase still bound, per cent of control (NUAK2 (human)): 75%
kinase still bound, per cent of control (IRAK1 (human)): 100%
kinase still bound, per cent of control (EPHA6 (human)): 100%
kinase still bound, per cent of control (PIK3C2G (human)): 44%
kinase still bound, per cent of control (MAP3K5 (human)): 100%
kinase still bound, per cent of control (HIPK2 (human)): 7.6%
kinase still bound, per cent of control (CDK2 (human)): 97%
kinase still bound, per cent of control (TNK2 (human)): 74%

N#Cc1c(NC(=O)c2cccc3ccccc23)sc2c1CCCC2
kinase still bound, per cent of control (MAP4K1 (human)): 89%
kinase still bound, per cent of control (MAP2K6 (human)): 100%
kinase still bound, per cent of control (TGFBR1 (human)): 100%
kinase still bound, per cent of control (RPS6KA4 KD1 (human)): 91%
kinase still bound, per cent of control (RPS6KA1 KD2 (human)): 78%
kinase still bound, per cent of control (NTRK2 (human)): 100%
kinase still bound, per cent of control (CDK14 (human)): 98%
kinase still bound, per cent of control (DAPK2 (human)): 91%
kinase still bound, per cent of control (IGF1R (human)): 76%
kinase still bound, per cent of control (AKT3 (human)): 82%
kinase still bound, per cent of control (ICK (human)): 81%
kinase still bound, per cent of control (EIF2AK1 (human)): 100%
kinase still bound, per cent of control (CDKL1 (human)): 73%
kinase still bound, per cent of control (ANKK1 (human)): 78%
kinase still bound, per cent of control (LRRK2 (human)): 94%
kinase still bound, per cent of control (RIPK4 (human)): 96%
kinase still bound, per cent of control (CLK3 (human)): 72%
kinase still bound, per cent of control (CAMK2A (human)): 92%
kinase still bound, per cent of control (TGFBR2 (human)): 100%
kinase still bound, per cent of control (MAPK12 (human)): 82%
kinase still bound, per cent of control (STK17B (human)): 100%
kinase still bound, per cent of control (RPS6KB1 (human)): 90%
kinase still bound, per cent of control (MAPK15 (human)): 64%
kinase still bound, per cent of control (DAPK1 (human)): 85%
kinase still bound, per cent of control (CDK7 (human)): 82%
kinase still bound, per cent of control (LATS2 (human)): 75%
kinase still bound, per cent of control (CDK13 (human)): 87%
kinase still bound, per cent of control (PRKG1 (human)): 88%
kinase still bound, per cent of control (STK35 (human)): 64%
kinase still bound, per cent of control (PDPK1 (human)): 81%
kinase still bound, per cent of control (PRKD2 (human)): 88%
kinase still bound, per cent of control [1]: 100%
kinase still bound, per cent of control (NUAK2 (human)): 95%
kinase still bound, per cent of control (IRAK1 (human)): 100%
kinase still bound, per cent of control (EPHA6 (human)): 94%
kinase still bound, per cent of control (PIK3C2G (human)): 87%
kinase still bound, per cent of control (MAP3K5 (human)): 94%
kinase still bound, per cent of control (HIPK2 (human)): 100%
kinase still bound, per cent of control (CDK2 (human)): 95%
kinase still bound, per cent of control (TNK2 (human)): 77%

CCN1CCN(Cc2ccc(Nc3ncc4c(n3)N(C)c3ccccc3C(=O)N4C)cc2C(F)(F)F)CC1
kinase still bound, per cent of control (MAP4K1 (human)): 18%
kinase still bound, per cent of control (MAP2K6 (human)): 75%
kinase still bound, per cent of control (TGFBR1 (human)): 81%
kinase still bound, per cent of control (RPS6KA4 KD1 (human)): 100%
kinase still bound, per cent of control (RPS6KA1 KD2 (human)): 23%
kinase still bound, per cent of control (NTRK2 (human)): 60%
kinase still bound, per cent of control (CDK14 (human)): 100%
kinase still bound, per cent of control (DAPK2 (human)): 70%
kinase still bound, per cent of control (IGF1R (human)): 100%
kinase still bound, per cent of control (AKT3 (human)): 100%
kinase still bound, per cent of control (ICK (human)): 80%
kinase still bound, per cent of control (EIF2AK1 (human)): 100%
kinase still bound, per cent of control (CDKL1 (human)): 98%
kinase still bound, per cent of control (ANKK1 (human)): 18%
kinase still bound, per cent of control (LRRK2 (human)): 15%
kinase still bound, per cent of control (RIPK4 (human)): 12%
kinase still bound, per cent of control (CLK3 (human)): 92%
kinase still bound, per cent of control (CAMK2A (human)): 53%
kinase still bound, per cent of control (TGFBR2 (human)): 94%
kinase still bound, per cent of control (MAPK12 (human)): 97%
kinase still bound, per cent of control (STK17B (human)): 100%
kinase still bound, per cent of control (RPS6KB1 (human)): 48%
kinase still bound, per cent of control (MAPK15 (human)): 100%
kinase still bound, per cent of control (DAPK1 (human)): 65%
kinase still bound, per cent of control (CDK7 (human)): 4%
kinase still bound, per cent of control (LATS2 (human)): 91%
kinase still bound, per cent of control (CDK13 (human)): 100%
kinase still bound, per cent of control (PRKG1 (human)): 100%
kinase still bound, per cent of control (STK35 (human)): 76%
kinase still bound, per cent of control (PDPK1 (human)): 100%
kinase still bound, per cent of control (PRKD2 (human)): 25%
kinase still bound, per cent of control [1]: 13%
kinase still bound, per cent of control (NUAK2 (human)): 6.6%
kinase still bound, per cent of control (IRAK1 (human)): 25%
kinase still bound, per cent of control (EPHA6 (human)): 90%
kinase still bound, per cent of control (PIK3C2G (human)): 17%
kinase still bound, per cent of control (MAP3K5 (human)): 100%
kinase still bound, per cent of control (HIPK2 (human)): 100%
kinase still bound, per cent of control (CDK2 (human)): 68%
kinase still bound, per cent of control (TNK2 (human)): 24%
